The values that follow are results of earlier work, collected in patent US4960596A (Ethypharm, priority 1987, dated 1990).

Structures can show the parent of a compound that is named as a salt.

The test system of one series is sodium-potassium pump. As to conditions: smooth muscle cells and other types of cell.
The subject of series [1] is special channels to be found in the membranes of a variety of cells (calcium).
The conditions of series [2]: literature.

For the compound `COc1ccc(C2Sc3ccccc3N(CCN(C)C)C(=O)C2OC(C)=O)cc1` (stereo not drawn) [Diltiazem, Diltiazem hydrochloride], the “effect on smooth muscle” value with smooth muscle is “vasodilatation of smooth muscle”. Further, the intra-cellular sodium entry with sodium-potassium pump was “reduces intra-cellular sodium by stimulating the sodium-potassium pump”. Moreover, in the series with heart muscle, the “heart pacemaker activity and auriculo-ventricular node conduction” value was “depressive effective on heart pacemaker activity and on auriculo-ventricular node conduction resulting in a negative chronotropic effect”; the inotropic effect result is “weak negative inotropic effect on the heart muscle”. The calcium inflow entry in series [1] is recorded as “inhibit the inflow of calcium”. Besides, in series [2], the half life result is listed as “four hours to seven hours”.
